In patent US20200383985A1, “Inhibitors of Protease Activated Receptor-2” (Endosome Therapeutics, Inc., priority 2017, published 2020):

Key:
[1] = tested on: mice; test: Visceromotor response (VMR) to colorectal distension (CRD); assay type: in vivo, mouse; conditions: 30 mg/kg, 100 μL enema into the colon, 30 min before the protease mixture
Experimental: Noxious colorectal distension (CRD) triggers the visceromotor response (VMR), a nociceptive brainstem reflex consisting of contraction of abdominal muscles, which can be monitored by electromyography. This approach allows assessment of visceral sensitivity in awake mice (Castro, J. et al., Br. J. Pharmacol. 2017, 175(12): 2384-2398). To examine protease-induced hy-persensitivity, a protease mixture (10 nM trypsin+100 nM NE+100 nM CS) or vehicle (saline) (100 μL) was instilled into the colon (enema) of healthy mice. After 15 min, the VMR was measured in response to graded CRD (20-80 mm Hg) with a barostat balloon. In vehicle-treated mice, CRD induced a graded VMR (FIG. 9I). […] Because alterations in the compliance of the colon can alter VMR to CRD, the pressure/volume relationship was measured at all distending pressures. Compliance of the colon was unaffected by the protease mixture or I-343 (FIGS. 21E and F). […]
Electromyography (EMG) of abdominal muscles was used to monitor VMR to CRD (Eichel, K. et al., Nat. Cell Biol. 2016, 18(3): 303-310). […] The EMG signal was recorded (NL100AK headstage), amplified (NL104), filtered (NL 125/126, Neurolog, Digitimer Ltd, bandpass 50-5000 Hz), and digitized (CED 1401, Cambridge Electronic Design) for off-line analysis using Spike2 (Cambridge Electronic Design). […]

[2] = tested on: DRG neurons; test: Ca2+ assays in DRG neurons; assay type: cell-based, mouse; conditions: trypsin 100 nM
Text: Proteases may induce pain by activating PAR2 on nociceptors or other cell types. To determine the contribution of PAR2 on nociceptors, mice were bred expressing PAR2 flanked by LoxP sites (Par2^lox/lox) with mice expressing Cre recombinase targeted to nociceptors using the NaV1.8 promoter (Scn10a) (Stirling L. C. et al., Pain 2005, 113(1-2): 27-36). Par2-NaV1.8 mice lacked immunoreactive PAR2 in NaV1.8-positive nociceptors (FIG. 1A). Whereas 31% (20 of 65) of small-diameter (<25 μm) DRG neurons from WT mice responded to trypsin (100 nM) with increased [Ca^2+]i, only 6% (3 of 51) of neurons from Par2-NaV1.8 mice responded (FIGS. 1B, 11A, and 11B). Nociception was assessed by measuring withdrawal responses to stimulation of the plantar surface of the hindpaw with von Frey filaments. […] In Par2-NaV1.8 mice, the initial responses were maintained, but responses after 120 min were diminished. […] Trypsin-induced inflammation was markedly diminished in Par2-NaV1.8 mice.
[Ca^2+]i was measured in DRG neurons from WT and Par2-NaV1.8 mice, as described (Tsvetanova, N. G., et al., Nat. Chem. Biol. 2014, 10(12): 1061-1065). […] Fluorescence of individual neurons was measured at 340 nm and 380 nm excitation and 530 nm using a Nikon Eclipse Ti microscope with 20× magnification and a Photometrics CoolSNAP camera. Data were analyzed using Nikon Ti Element Software. […]

Molecule	protease mixture-amplified VMR to CRD [1]	small-diameter DRG neurons responding with increased [Ca2+]i, Par2-NaV1.8 mice ([2]; 3 of 51 neurons) [%]	small-diameter DRG neurons responding with increased [Ca2+]i, WT mice ([2]; 20 of 65 neurons) [%]
Cc1nc(C(=O)N2CCN(C(=O)c3cn4nc(-c5ccc(F)cc5)cc(C(C)(C)C)c4n3)C(C)(C)C2)n[nH]1 [Compound I-343, (8-(tert-butyl)-6-(4-fluorophenyl)imidazo[1,2-b]pyridazin-2-yl)(2,2-dimethyl-4-(5-methyl-1H-1,2,4-triazole-3-carbonyl)piperazin-1-yl)methanone]	abolished the response		
trypsin		6	31
